Measured values taken from the supplement of paper PMC11451515.

Key:
Settings in all cases: 48 h
P12-Ichikawa [1] = assay: cell viability relative to DMSO control; higher = less cytotoxic
Outline: (§1)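 Cells were incubated for 48 h at 37°C before CellTiter-Glo One luminescence was read. The cells were NOMO1 or SEM (500 cells/well) or P12-Ichikawa (1000 cells/well) leukemia cells, adapted for at least four passages in each medium and seeded in 1536-well plates (5 μl). Dosing used library compounds in DMSO applied by pin over 11 threefold points, 47 μM to 0.79 nM. Viability is the per-plate percentage of DMSO wells, with cell-free wells as background.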

SEM cells [2] = assay: as above
Outline: as §1

NOMO1 [3] = assay: as above
Outline: as §1

P12-Ichikawa [4] = assay: AUC of viability dose-response curve (% viability x log10 dose units); higher = less sensitive
Outline: (§2)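 Medium-adapted leukemia cells in 1536-well plates, at 500 or 1000 cells/well, were incubated for 48 h at 37°C with library compounds in DMSO at 11 threefold doses from 47 μM to 0.79 nM. CellTiter-Glo One luminescence normalised per plate to DMSO and cell-free wells was fitted with a four-parameter log-logistic model over log10 doses. Area under the curve was integrated from this fit by trapezoidal rule, with curves beyond full viability scaled and failed quality-control curves removed.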

SEM cells [5] = assay: as above
Outline: as §2

NOMO1 [6] = assay: as above
Outline: as §2

COC1=CC=CC2=C1C(=NC(=N2)C3=CC=CS3)NN4C(=O)\C=C(C)/C4=O
cell viability [%]
Settings	NOMO1 [3]	P12-Ichikawa [1]	SEM cells [2]
HPLM + 10% dialyzed FBS, 0.000781 µM	95.7	94.4	86.8
HPLM + 10% dialyzed FBS, 0.00234 µM	103	98.3	96.3
HPLM + 10% dialyzed FBS, 0.00702 µM	94	104	101
HPLM + 10% dialyzed FBS, 0.0211 µM	87.7	92.5	87.5
HPLM + 10% dialyzed FBS, 0.0632 µM	77.6	93.2	72.4
HPLM + 10% dialyzed FBS, 0.19 µM	60.3	86.5	69.1
HPLM + 10% dialyzed FBS, 0.569 µM	44.1	62.2	42.5
HPLM + 10% dialyzed FBS, 1.71 µM	38.2	56.8	29.7
HPLM + 10% dialyzed FBS, 5.12 µM	8.17	19.7	11.3
HPLM + 10% dialyzed FBS, 15.4 µM	1.91	4.94	2.5
HPLM + 10% dialyzed FBS, 46.1 µM	2.25	1.01	2.94
RPMI 5 mM glucose + 10% FBS, 0.000781 µM	90	90.6	90.3
RPMI 5 mM glucose + 10% FBS, 0.00234 µM	88.4	93.7	99
RPMI 5 mM glucose + 10% FBS, 0.00702 µM	92.9	92.2	93.5
RPMI 5 mM glucose + 10% FBS, 0.0211 µM	84.8	92.9	92.2
RPMI 5 mM glucose + 10% FBS, 0.0632 µM	92.3	84.7	81.9
RPMI 5 mM glucose + 10% FBS, 0.19 µM	78.2	75.4	75.5
RPMI 5 mM glucose + 10% FBS, 0.569 µM	56.2	62.8	59.5
RPMI 5 mM glucose + 10% FBS, 1.71 µM	48.2	59.7	36
RPMI 5 mM glucose + 10% FBS, 5.12 µM	14.4	21.3	5.68
RPMI 5 mM glucose + 10% FBS, 15.4 µM	3.32	4.06	1.13
RPMI 5 mM glucose + 10% FBS, 46.1 µM	4.06	0.767	2.39
RPMI 5 mM glucose + 10% dialyzed FBS, 0.000781 µM	81.1	87	87.3
RPMI 5 mM glucose + 10% dialyzed FBS, 0.00234 µM	85.3	90.7	87.2
RPMI 5 mM glucose + 10% dialyzed FBS, 0.00702 µM	94.5	94.6	88.5
RPMI 5 mM glucose + 10% dialyzed FBS, 0.0211 µM	82.4	86.7	78.1
RPMI 5 mM glucose + 10% dialyzed FBS, 0.0632 µM	74.6	87.8	76.3
RPMI 5 mM glucose + 10% dialyzed FBS, 0.19 µM	68.8	74.1	83.1
RPMI 5 mM glucose + 10% dialyzed FBS, 0.569 µM	50.4	62.3	57.4
RPMI 5 mM glucose + 10% dialyzed FBS, 1.71 µM	38.9	54.9	41.3
RPMI 5 mM glucose + 10% dialyzed FBS, 5.12 µM	16.9	23.7	5.19
RPMI 5 mM glucose + 10% dialyzed FBS, 15.4 µM	4.27	3.09	1.14
RPMI 5 mM glucose + 10% dialyzed FBS, 46.1 µM	2.63	0.857	2.21

AUC of viability dose-response curve
Settings	NOMO1 [6]	P12-Ichikawa [4]	SEM cells [5]
HPLM + 10% dialyzed FBS	269	318	264
RPMI 5 mM glucose + 10% FBS	290	302	282
RPMI 5 mM glucose + 10% dialyzed FBS	265	297	270

O=C(OC)[C@]12CC[C@@]3(C)[C@]4(C)CC[C@H]5[C@@](C)(C)C(=O)C(=C[C@]5(C)C4=CC(=O)[C@@H]3[C@@H]2C[C@](C)(C)CC1)C#N
cell viability [%]
Settings	NOMO1 [3]	P12-Ichikawa [1]	SEM cells [2]
HPLM + 10% dialyzed FBS, 0.000781 µM	95	100	92.6
HPLM + 10% dialyzed FBS, 0.00234 µM	100	100	83.3
HPLM + 10% dialyzed FBS, 0.00702 µM	90.6	96.3	100
HPLM + 10% dialyzed FBS, 0.0211 µM	112	102	101
HPLM + 10% dialyzed FBS, 0.0632 µM	110	104	104
HPLM + 10% dialyzed FBS, 0.19 µM	94.1	105	99.7
HPLM + 10% dialyzed FBS, 0.569 µM	113	99.8	98.1
HPLM + 10% dialyzed FBS, 1.71 µM	96.1	97.5	107
HPLM + 10% dialyzed FBS, 5.12 µM	110	99.2	81
HPLM + 10% dialyzed FBS, 15.4 µM	2.47	2.24	3.9
HPLM + 10% dialyzed FBS, 46.1 µM	2.86	2.66	4.06
RPMI 5 mM glucose + 10% FBS, 0.000781 µM	93.9	92.7	101
RPMI 5 mM glucose + 10% FBS, 0.00234 µM	99.8	96.7	91.8
RPMI 5 mM glucose + 10% FBS, 0.00702 µM	89.5	97.1	112
RPMI 5 mM glucose + 10% FBS, 0.0211 µM	82.1	90.3	94.6
RPMI 5 mM glucose + 10% FBS, 0.0632 µM	99.2	109	110
RPMI 5 mM glucose + 10% FBS, 0.19 µM	94.2	100	97.4
RPMI 5 mM glucose + 10% FBS, 0.569 µM	88.9	107	101
RPMI 5 mM glucose + 10% FBS, 1.71 µM	84.7	102	99.7
RPMI 5 mM glucose + 10% FBS, 5.12 µM	88.6	97	109
RPMI 5 mM glucose + 10% FBS, 15.4 µM	2.76	2.4	3.61
RPMI 5 mM glucose + 10% FBS, 46.1 µM	2.71	2.78	4.26
RPMI 5 mM glucose + 10% dialyzed FBS, 0.000781 µM	87.2	95.8	82
RPMI 5 mM glucose + 10% dialyzed FBS, 0.00234 µM	92	93.3	87.2
RPMI 5 mM glucose + 10% dialyzed FBS, 0.00702 µM	96.5	92.3	90.8
RPMI 5 mM glucose + 10% dialyzed FBS, 0.0211 µM	96.6	98.3	92.6
RPMI 5 mM glucose + 10% dialyzed FBS, 0.0632 µM	102	101	109
RPMI 5 mM glucose + 10% dialyzed FBS, 0.19 µM	112	108	102
RPMI 5 mM glucose + 10% dialyzed FBS, 0.569 µM	85	105	103
RPMI 5 mM glucose + 10% dialyzed FBS, 1.71 µM	84.6	90.3	77.4
RPMI 5 mM glucose + 10% dialyzed FBS, 5.12 µM	85.7	90.7	73.6
RPMI 5 mM glucose + 10% dialyzed FBS, 15.4 µM	2.44	2.44	3.1
RPMI 5 mM glucose + 10% dialyzed FBS, 46.1 µM	2.7	2.54	3.38

AUC of viability dose-response curve
Settings	NOMO1 [6]	P12-Ichikawa [4]	SEM cells [5]
HPLM + 10% dialyzed FBS	408	407	393
RPMI 5 mM glucose + 10% FBS	372	404	408
RPMI 5 mM glucose + 10% dialyzed FBS	381	396	370
